Columns and labels:
KCNH6 [1] = molecular target: T1, KCNH6 (Homo sapiens, UniProt Q9H252); assay: whole-cell patch-clamp, peak tail current in transfected HEK293 cells; assay type: cell-based
T1 construct: human KCNH6 gene in pcDNA3.1, transiently expressed in HEK293 cells
T1 sequence (Q9H252 1-958): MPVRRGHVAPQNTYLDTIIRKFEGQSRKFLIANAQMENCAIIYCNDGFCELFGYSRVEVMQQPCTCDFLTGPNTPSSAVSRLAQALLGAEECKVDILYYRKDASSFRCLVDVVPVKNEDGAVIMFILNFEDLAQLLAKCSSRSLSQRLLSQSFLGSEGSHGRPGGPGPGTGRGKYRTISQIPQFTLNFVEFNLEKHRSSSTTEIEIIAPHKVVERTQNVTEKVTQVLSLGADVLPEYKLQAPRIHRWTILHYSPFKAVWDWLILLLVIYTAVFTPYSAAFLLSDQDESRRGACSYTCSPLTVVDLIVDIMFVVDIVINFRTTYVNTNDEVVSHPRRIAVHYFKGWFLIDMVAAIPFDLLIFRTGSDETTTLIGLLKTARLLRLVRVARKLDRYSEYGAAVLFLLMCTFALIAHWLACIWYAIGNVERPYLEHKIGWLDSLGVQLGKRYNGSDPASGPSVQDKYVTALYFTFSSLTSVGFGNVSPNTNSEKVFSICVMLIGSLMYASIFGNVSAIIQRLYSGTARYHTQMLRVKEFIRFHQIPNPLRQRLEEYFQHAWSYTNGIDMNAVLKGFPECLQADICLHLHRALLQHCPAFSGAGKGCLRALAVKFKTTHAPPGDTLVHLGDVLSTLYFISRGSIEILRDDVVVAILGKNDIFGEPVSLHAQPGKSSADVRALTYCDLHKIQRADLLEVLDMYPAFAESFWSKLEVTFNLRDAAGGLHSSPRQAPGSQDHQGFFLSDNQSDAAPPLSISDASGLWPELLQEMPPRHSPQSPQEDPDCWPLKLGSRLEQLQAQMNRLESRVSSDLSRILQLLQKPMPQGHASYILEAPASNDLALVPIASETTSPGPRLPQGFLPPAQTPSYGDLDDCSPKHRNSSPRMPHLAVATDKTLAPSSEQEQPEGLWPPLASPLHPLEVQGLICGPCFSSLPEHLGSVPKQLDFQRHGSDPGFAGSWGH

KCNH6 [2] = molecular target: T1, KCNH6; assay: whole-cell patch-clamp in transfected HEK293 cells (inhibitor control); assay type: cell-based

Compound | IC50 (KCNH6 [1]) | whole-cell patch-clamp in transfected HEK293 cells (inhibitor control) (KCNH6 [2])
COc1cc(N)c(Cl)cc1C(=O)NC1CCN(CCCOc2ccc(F)cc2)CC1OC (centres unmarked) [cisapride] | 6.04 nM | 
CN(CCOc1ccc(NS(C)(=O)=O)cc1)CCc1ccc(NS(C)(=O)=O)cc1 [dofetilide] |  | E4031 and dofetilide were used as inhibitor controls

Source: PMC9618959, “Cisapride induced hypoglycemia via the KCNH6 potassium channel” (Frontiers in Endocrinology, 2022)
